Source: patent US10933051B2, “Carbapenem compounds and compositions for the treatment of bacterial infections” (FOB Synthesis, Inc., priority 2017, dated 2021)

What was measured:
Type in all cases: cell-based
Set-up in all cases: unit not given here
A. baumannii 4010 = assay: MIC by CLSI agar/broth dilution, Test Example 1; conditions: Table 2; strain produces OXA-51
Experimental: (§1) The MIC (minimum inhibitory concentration) was determined by the CLSI (Clinical and Laboratory Standards Institute) methods. The agar dilution method for determining antimicrobial susceptibility was carried out using Mueller Hinton-II agar and the amount of inoculation was 10^4 CFU/spot. Broth dilution tests were performed using Mueller Hinton-II broth. All assays were run with the indicated control strains, available from the ATCC (American Type Culture Collection, Rockville, Md.).

A. baumannii KABA 01-33 = assay: MIC by CLSI agar/broth dilution, Test Example 1; conditions: Table 2; strain produces OXA-2, VIM-2
Experimental: as §1

E. coli ATCC10536 = assay: MIC by CLSI agar/broth dilution, Test Example 1; conditions: Table 2
Experimental: as §1

K. pneumoniae ATCC10031 = assay: MIC by CLSI agar/broth dilution, Test Example 1; conditions: Table 2
Experimental: as §1

P. aeruginosa ATCC27853 = assay: MIC by CLSI agar/broth dilution, Test Example 1; conditions: Table 2
Experimental: as §1

A. baumannii FSAb-029 = assay: Antimicrobial Susceptibility Test (CLSI), Test Example 2; conditions: Table 4; strain produces OXA-2, IMP-1
Experimental: (§2) Antimicrobial Susceptibility Test was performed by the CLSI (Clinical and Laboratory Standards Institute) methods. The agar dilution method for determining antimicrobial susceptibility was carried out using Mueller Hinton-II agar and the amount of inoculation was 10^4CFU/spot. Broth dilution tests were performed using the Mueller Hinton-II broth. All assays were run with the indicated control strains, available from the ATCC (American Type Culture Collection, Rockville, Md.).

A. baumannii FSAb-039 = assay: as above; conditions: Table 4; strain produces OXA-51
Experimental: as §2

A. baumannii FSAb-056 = assay: as above; conditions: Table 4; strain produces OXA-23, OXA-51
Experimental: as §2

A. baumannii FSAb-065 = assay: as above; conditions: Table 4; strain produces OXA-2, VIM-2
Experimental: as §2

E. coli FSEco-054 = assay: as above; conditions: Table 4; strain produces ESBL
Experimental: as §2

[1] = test system: K. pneumoniae ATCC BAA-1904; assay: as above; conditions: Table 4; strain produces KPC-3
Experimental: as §2

P. aeruginosa FSPa-121 = assay: as above; conditions: Table 4; strain produces OXA-17
Experimental: as §2

MIC (minimum inhibitory concentration), A. baumannii 4010 (A. baumannii 4010)	MIC (minimum inhibitory concentration), A. baumannii KABA 01-33 (A. baumannii KABA 01-33)	MIC (minimum inhibitory concentration), E. coil ATCC10536 (E. coli ATCC10536)	MIC (minimum inhibitory concentration), K. pneumoniae ATCC10031 (K. pneumoniae ATCC10031)	MIC (minimum inhibitory concentration), P. aeruginosa ATCC27853 (P. aeruginosa ATCC27853)	Compound	antimicrobial susceptibility, A. baumannii FSAb-029 (A. baumannii FSAb-029)	antimicrobial susceptibility, A. baumannii FSAb-039 (A. baumannii FSAb-039)	antimicrobial susceptibility, A. baumannii FSAb-056 (A. baumannii FSAb-056)	antimicrobial susceptibility, A. baumannii FSAb-065 (A. baumannii FSAb-065)	antimicrobial susceptibility, E. coil FSEco-054 (E. coli FSEco-054)	antimicrobial susceptibility, K. pneumoniae BAA-1904 [1]	antimicrobial susceptibility, P. aeruginosa FSPa-121 (P. aeruginosa FSPa-121)
2	1	0.5	0.063	4	C[C@@H](O)[C@H]1C(=O)N2C(C(=O)O)=C(CN(C)CCNC(=O)c3ccc(O)c(O)c3Cl)[C@H](C)[C@H]12 [Compound 1]	1	2	2	1	1	8	2
8	2	1	0.13	16	C[C@@H](O)[C@H]1C(=O)N2C(C(=O)O)=C(CN(C)CCNC(=O)c3cc(O)c(O)cc3Cl)[C@H](C)[C@H]12 [Compound 5]	8	8	8	8	4	32	8
4	1	0.5	0.063	8	C[C@@H](O)[C@H]1C(=O)N2C(C(=O)O)=C(CN(C)CCNC(=O)c3cc(O)c(O)c(Cl)c3)[C@H](C)[C@H]12 [Compound 6]	2	4	2	2	1	32	2
4	1	0.5	0.063	4	C[C@@H](O)[C@H]1C(=O)N2C(C(=O)O)=C(CN(C)CC(=O)NCCNC(=O)c3ccc(O)c(O)c3Cl)[C@H](C)[C@H]12 [Compound 19]	8	8	8	8	8	8	4
8	2	0.5	0.13	8	C[C@@H](O)[C@H]1C(=O)N2C(C(=O)O)=C(CN(C)CC(=O)NCc3cc(=O)c(O)cn3O)[C@H](C)[C@H]12 [Compound 26]	16	16	4	4	4	32	4
